Test results as given in patent publication US20060142390A1, “Treatment for severe melancholic depression” (priority 2004, published 2006).

Experiments:
[1] = test system: outpatients with a new episode of depression; assay: Study of 96% pure EPA (ethyl ester) as monotherapy versus placebo in depression; Bech Scale and depression sub score of the HDRS; format: in vivo, human; parameters: key to Bech score, Mean: Bech score = sum of 6 HDRS items; key to Change of Bech score: reduction of Bech score (sum of 6 HDRS items) over trial; key to Depression subscore (item1, item2, item3), Mean / Depression subscore, Mean: sum of HDRS item 1, item 2 and item 3; details: for Bech score, Mean / Depression subscore (item1, item2, item3), Mean / Depression subscore, Mean: EPA any dose; for Depression subscore (item1, item2, item3), Mean: ITT
Method: (§1) A study was performed on outpatients with a new episode of depression using 96% pure EPA, as the ethyl ester, as a monotherapy for treatment of depression. The primary objective was to examine the effects of 96% pure EPA versus placebo on the Hamilton Depression Rating Scale (HDRS) in patients with a new or recurrent episode of depression. • 1. The Bech Scale (sum of 6 items as specified) was used as the instrument to measure efficacy across all subjects, i.e. the reduction of the Bech Score in the course of the trial, by comparing this change in the active groups with that in the placebo group. The Bech Scale consists of 6 items from the original HDRS: depression, guilt, work/interest, psychomotor retardation, anxiety psychic and general somatic symptoms (loss of energy, tiredness) and has been successfully used in several trials (Bech 2002 Acta Psychiatry Scand vol 106; p 252-264). • 2. For the differentiation of the subgroups of subjects, item 6 (early morning awakening), item 12 (loss of appetite) and item 16 (weight loss) were chosen from the HDRS, to identify subjects suffering from severe melancholic features. These items are also related to the definition of the melancholia specifier according the DSM-IV (American Psychiatric Association: 4th Edition, 2000). This specification was only done once, i.e. at the baseline visit (v1). Patients with a score of 2 in any of these 3 items were regarded as having severe melancholic items and therefore belonging the severe melancholic group, the others were regarded as not belonging to this group. The characteristics could change in the course of treatment, therefore it was important that only the condition at baseline was used for the definition. Results: An analysis of a less frequently used, but pre-specified sub score, i.e. the depression sub score, which is the sum of item 1 (depression), item 2 (guilt) and item 3 (suicidality), confirmed the findings.

[2] = test system: non-responsive patients on standard therapy; assay: Earlier trials of 96% pure EPA as add on to standard therapy in non-responsive patients; Bech score over time; format: in vivo, human; parameters: key to Bech score, Mean: Bech score = sum of 6 HDRS items; details: for Bech score, Mean: Add on therapy
Text: as §1, with “The” for “A study was performed on outpatients with a new episode of depression using 96% pure EPA, as the ethyl ester, as a monotherapy for treatment of depression. The”, “Results:” for “Results: An analysis of a less frequently used, but pre-specified sub score, i.e. the depression sub score, which is the sum of item 1 (depression), item 2 (guilt) and item 3 (suicidality), confirmed the findings.”
The following presents the Bech-Score over time in the severe melancholic groups, contrasted with those subjects showing no severe melancholic signs.

CC/C=C\C/C=C\C/C=C\C/C=C\C/C=C\CCCC(=O)O [EPA, all cis (or all z) 5,8,11,14,17-eicosapentaenoic acid] was tested, and the “Change of Bech score compared with placebo” value ([1]; ITT group) was “no significant difference”, the “Change of Bech score” value ([1]; ITT group, all subjects, placebo changed by 3.9 points) was 4.0 points and the “Bech score, Mean” value ([1]; ITT group, Bech l2, after 2 weeks, last observation carried forward) was 8.1. The “Bech score, Mean” value ([1]; ITT group, Bech l4, after 4 weeks, last observation carried forward) was 6.6, the “Bech score, Mean” value ([1]; ITT group, Bech l6, after 6 weeks, last observation carried forward) was 6.3 and the “Bech score, Mean” value ([1]; ITT group, Bech v1 = baseline week 1) was 10.3. For the same compound, the “Depression subscore (item1, item2, item3), Mean” value ([1]; baseline) was 4.3, the “Depression subscore (item1, item2, item3), Mean” value ([1]; outcome, LOCF) was 2.3 and the “Bech score, Mean” value ([1]; No severe melancholic signs, Bech l2 (week 2)) was 8.8. For the same compound, the “Bech score, Mean” value ([1]; No severe melancholic signs, Bech l4 (week 4)) was 6.3, the “Bech score, Mean” value ([1]; No severe melancholic signs, Bech l6 (week 6)) was 6.1 and the “Bech score, Mean” value ([1]; No severe melancholic signs, Bech v1 (baseline)) was 10.2. The “Depression subscore, Mean” value ([1]; No severe melancholic signs, baseline) was 4.4, the “Depression subscore, Mean” value ([1]; No severe melancholic signs, outcome) was 2.4 and the “Bech score, Mean” value ([1]; With severe melancholic signs, Bech l2 (week 2)) was 7.3. The “Bech score, Mean” value ([1]; With severe melancholic signs, Bech l4 (week 4)) was 7.0, the “Bech score, Mean” value ([1]; With severe melancholic signs, Bech l6 (week 6)) was 6.5 and the “Bech score, Mean” value ([1]; With severe melancholic signs, Bech v1 (baseline)) was 10.3. The “Depression subscore, Mean” value ([1]; With severe melancholic signs, baseline) was 4.1, the “Depression subscore, Mean” value ([1]; With severe melancholic signs, outcome) was 2.3 and the “Change of Bech score compared with placebo” value ([1]; non-severe melancholic group) was “not significantly different”. For the same compound, the “Change of Bech score” value ([1]; non-severe melancholic group, placebo change 5.0) was 4.1, the “Depression sub score outcome compared with placebo (ANVOVA, baseline as covariate)” value ([1]; patients with severe melancholic signs) was “significant superiority” and the “Improvement of depression sub score” value ([1]; patients with severe melancholic signs, placebo 0.7 points, p<0.05) was 1.8 points. The “Improvement of Bech score” value ([1]; patients with severe melancholic signs, placebo 2.9 points, p<0.05) was 3.8 points, the “Bech score, Mean” value ([2]; no severe melancholic signs, Bech l2 (week 2)) was 8.3 and the “Bech score, Mean” value ([2]; no severe melancholic signs, Bech l4 (week 4)) was 7.3. For the same compound, the “Bech score, Mean” value ([2]; no severe melancholic signs, Bech l8 (week 8)) was 6.7, the “Bech score, Mean” value ([2]; no severe melancholic signs, Bech l12 (week 12)) was 6.7 and the “Bech score, Mean” value ([2]; no severe melancholic signs, Bech v1 (baseline)) was 9.8. The “Bech score, Mean” value ([2]; with severe melancholic signs, Bech l2 (week 2)) was 8.1, the “Bech score, Mean” value ([2]; with severe melancholic signs, Bech l4 (week 4)) was 6.8 and the “Bech score, Mean” value ([2]; with severe melancholic signs, Bech l8 (week 8)) was 5.9. The “Bech score, Mean” value ([2]; with severe melancholic signs, Bech l12 (week 12)) was 5.3, the “Bech score, Mean” value ([2]; with severe melancholic signs, Bech v1 (baseline)) was 9.0 and the “Improvement of Bech score” value ([2]; add on therapy, patients with severe melancholic features, 12 weeks, placebo 2.8 points, p<0.05) was 3.7 points. For the same compound, the “Bech score outcome at 12 weeks compared with placebo (ANVOVA, baseline as covariate, last observation carried forward)” value ([2]; add on therapy, patients with severe melancholic signs) was “statistically superior”.
